System: Plasmopara viticola
Assay: Test against downy mildew of grapevine (preventive action)
Format: in vivo, Plasmopara viticola on grapevine plants (Chardonnay variety)
Conditions: alone
Text: In the compositions according to the invention, the compound (I)/compound (II) ratio is advantageously chosen so as to produce a synergistic effect. The term “synergistic effect” especially means the effect defined by S. R. Colby in an article entitled “Calcul des responses synergiques et antagonistes des combinaisons herbicides [Calculation of the synergistic and antagonist responses of herbicidal combinations]”, Weeds, (1967), 15, pages 20–22.
[formula] in which E represents the expected percentage of inhibition of the disease for the combination of the two fungicides at defined doses (for example equal to x and y, respectively), X is the percentage of inhibition observed for the disease by compound (I) at a defined dose (equal to x), Y is the percentage of inhibition observed for the disease by compound (II) at a defined dose (equal to y). When the percentage of inhibition observed for the combination is greater than E, there is a synergistic effect.
Test of a composition against downy mildew of grapevine (Plasmopara viticola; preventive action):
Grapevine plants (Chardonnay variety) are grown on sandy soil in plastic pots, with one plant per pot. The two-month-old plants (6 to 7 leaves developed) are sprayed with compound (I) and compound (II), either alone or as a mixture.
The fungicidal active materials, either alone or as a mixture, are applied at a rate of 500 liters/ha.
The compound (I)/compound (II) ratios studied are 1/10, 1/15 and 1/20.
Three days after the treatment, each plant is inoculated by spraying with an aqueous suspension of Plasmopara viticola spores obtained from contaminated leaves. The spore concentration is about 100 000 units per ml.
After contamination, the plants are incubated for two days at 18° C. under a saturated atmosphere, and then for 5 days at about 20° C. with a relative humidity of 90–100%.
Seven days after the contamination, the symptoms are evaluated in terms of extent of surface area on the underside of the leaves that are infected, relative to the untreated but contaminated plants.
The efficacy of the treatment is calculated using the Abbott formula below: […]
The concentrations of the fungicides alone or as a mixture giving 50%, 70% or 90% efficacy for each component, in the appropriate test, are determined on the basis of the model of the dose/response sigmoid curve and their corresponding confidence intervals. The results are analysed using the Tammes or Colby model.

SMILES | % Efficacy (100 mg/l) [%] | % Efficacy (150 mg/l) [%] | % Efficacy (200 mg/l) [%] | % Efficacy (1000 mg/l) [%] | % Efficacy (1500 mg/l) [%] | % Efficacy (2000 mg/l) [%] | % Efficacy (10 mg/l, preventive, 7 days after contamination) [%] | % Efficacy (70 mg/l) [%] | % Efficacy (105 mg/l) [%] | % Efficacy (140 mg/l) [%] | % Efficacy (700 mg/l) [%] | % Efficacy (1050 mg/l) [%] | % Efficacy (1400 mg/l) [%]
CCO[PH](=O)O.[Al] [Compound (IIb), aluminium ethyl hydrogen phosphonate, reference compound] | 0 | 0 | 0 | 46 | 60 | 81 | – | – | – | – | – | – | –
O=C(NCc1ncc(C(F)(F)F)cc1Cl)c1c(Cl)cccc1Cl [Compound (Ia), 2,6-dichloro-N-{[3-chloro-5-(tri-fluoromethyl)-2-pyridinyl]methyl}benzamide] | 100 | – | – | – | – | – | 77 | – | – | – | – | – | –
OP(O)O [Compound (IIa), phosphorous acid] | – | – | – | – | – | – | – | 0 | 0 | 0 | 4 | 50 | 52
